Experimental data from PubChem BioAssay AID248 (DTP/NCI, 2004).
Several values for one entry are separate records, joined by “and”; a condition that tells them apart may be missing. Equal values may be shown once. Inconclusive results and toxic doses are left out. No stated cut-off is given here; in the data, active means T/C of 150% or more; inactive means T/C below 125%. Square brackets hold non-standard residues; d marks the D form. Peptide text beside a SMILES is read from it. * marks the point of attachment. NMeY = CN[CH](Cc1ccc(O)cc1)C(=O)O; Bn = c1ccc(C*)cc1

Test system: L1210 leukemia ip in BDF1 mice, survival T/C
Test: NCI In Vivo Anticancer Drug Screen. Data for tumor model L1210 Leukemia (intraperitoneal) in B6D2F1 (BDF1) mice
Conditions: endpoint: mean survival time, higher = longer survival
In short: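 Ratio derived from survival: compound-dosed mice over vehicle-dosed mice, all bearing a transplantable tumor.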

[1] = dose: 50.0 mg/kg/injection, schedule: Q01DX009 (ip), vehicle: Klucel (hydroxypropylcellulose) (HPC)
[2] = dose: 100.0 mg/kg/injection, schedule: Q01DX009 (ip), vehicle: Klucel (hydroxypropylcellulose) (HPC)
[3] = dose: 100.0 mg/kg/injection, schedule: Q04DX003 (ip), vehicle: saline
[4] = dose: 200.0 mg/kg/injection, schedule: Q01DX009 (ip), vehicle: Klucel (hydroxypropylcellulose) (HPC)
[5] = dose: 200.0 mg/kg/injection, schedule: Q04DX003 (ip), vehicle: saline
[6] = dose: 100.0 mg/kg/injection, schedule: Q04DX003 (ip), vehicle: Klucel (hydroxypropylcellulose) (HPC)
[7] = dose: 200.0 mg/kg/injection, schedule: Q04DX003 (ip), vehicle: Klucel (hydroxypropylcellulose) (HPC)
[8] = dose: 400.0 mg/kg/injection, schedule: Q04DX003 (ip), vehicle: Klucel (hydroxypropylcellulose) (HPC)
[9] = dose: 100.0 mg/kg/injection, schedule: Q01DX001 (ip), vehicle: saline
[10] = dose: 200.0 mg/kg/injection, schedule: Q01DX001 (ip), vehicle: saline
[11] = dose: 400.0 mg/kg/injection, schedule: Q01DX001 (ip), vehicle: saline
[12] = dose: 50.0 mg/kg/injection, schedule: Q01DX009 (ip), vehicle: saline with Tween-80
[13] = dose: 100.0 mg/kg/injection, schedule: Q01DX009 (ip), vehicle: saline with Tween-80
[14] = dose: 100.0 mg/kg/injection, schedule: Q01DX009 (ip), vehicle: saline
[15] = dose: 200.0 mg/kg/injection, schedule: Q01DX009 (ip), vehicle: saline
[16] = dose: 100.0 mg/kg/injection, schedule: Q04DX003 (ip), vehicle: saline with Tween-80
[17] = dose: 200.0 mg/kg/injection, schedule: Q04DX003 (ip), vehicle: saline with Tween-80
[18] = dose: 400.0 mg/kg/injection, schedule: Q04DX003 (ip), vehicle: saline with Tween-80
[19] = dose: 50.0 mg/kg/injection, schedule: Q01DX009 (ip), vehicle: saline

Measured: T/C

Cc1nc(N)sc1N=Nc1cccc(Cl)c1Cl
inactive: dose: 75.0 mg/kg/injection, schedule: Q01DX001 (ip), vehicle: saline 88 % of control | dose: 150.0 mg/kg/injection, schedule: Q01DX001 (ip), vehicle: saline 92 % of control | dose: 300.0 mg/kg/injection, schedule: Q01DX001 (ip), vehicle: saline 93 % of control

COc1ccc(-c2nc(SCc3ccc(Cl)cc3)[nH]c(=O)c2CCO)cc1
inactive: [1] 95 % of control | [2] 101 % of control | [3] 111 % of control | [4] 96 % of control | [5] 95 % of control

O=C1C=CC(=NBr)C=C1
inactive: dose: 12.5 mg/kg/injection, schedule: Q01DX009 (ip), vehicle: Klucel (hydroxypropylcellulose) (HPC) 89 % of control | dose: 25.0 mg/kg/injection, schedule: Q01DX009 (ip), vehicle: Klucel (hydroxypropylcellulose) (HPC) 92 % of control | [1] 89 % of control

CCN(CC)CCNC(=O)Nc1ccc(OC)cc1
inactive: [2] 96 % of control | [4] 103 % of control

O=[N+]([O-])c1cc2c3ccccc3oc2c2cccnc12
inactive: [2] 91 % of control | [6] 90 % of control | [4] 90 % of control | [7] 90 % of control | [8] 89 % of control

COc1ccc(/C=C2\N=C(c3cccc([N+](=O)[O-])c3)OC2=O)cc1OC
inactive: dose: 100.0 mg/kg/injection, schedule: Q04DX002 (ip), vehicle: Klucel (hydroxypropylcellulose) (HPC) 89 % of control | dose: 200.0 mg/kg/injection, schedule: Q04DX002 (ip), vehicle: Klucel (hydroxypropylcellulose) (HPC) 110 % of control | dose: 400.0 mg/kg/injection, schedule: Q04DX002 (ip), vehicle: Klucel (hydroxypropylcellulose) (HPC) 100 % of control

Nc1nc(=O)[nH]nc1SCc1ccccc1
inactive: [9] 104 % of control | [10] 98 % of control | [11] 98 % of control

O=C(O)CSc1ccc(Cl)cc1
inactive: [12] 100 % of control | [13] 93 % of control | dose: 200.0 mg/kg/injection, schedule: Q01DX009 (ip), vehicle: saline with Tween-80 94 % of control

CCOC(=O)N1C(C)C1C(C)C (configuration not stated)
inactive: dose: 62.0 mg/kg/injection, schedule: Q04DX003 (ip), vehicle: carboxymethylcellulose (CMC) 97 % of control | dose: 125.0 mg/kg/injection, schedule: Q04DX003 (ip), vehicle: carboxymethylcellulose (CMC) 97 % of control | dose: 250.0 mg/kg/injection, schedule: Q04DX003 (ip), vehicle: carboxymethylcellulose (CMC) 94 % of control

N=C(N)SCc1csc(N)n1
inactive: dose: 25.0 mg/kg/injection, schedule: Q04DX003 (ip), vehicle: saline 119 % of control | dose: 50.0 mg/kg/injection, schedule: Q04DX003 (ip), vehicle: saline 111 % of control | [14] 112 % of control | [3] 100 % of control and 117 % of control | [15] 96 % of control

CCCCC(=C/C(C)(C)C)/C(=C/C(C)(C)C)CCCC
inactive: dose: 150.0 mg/kg/injection, schedule: Q01DX009 (ip), vehicle: saline 88 % of control | dose: 300.0 mg/kg/injection, schedule: Q01DX009 (ip), vehicle: saline 88 % of control

CCCCCCCCCCCCCCC
inactive: dose: 100.0 mg/kg/injection, schedule: Q01DX001 (ip), vehicle: saline with Tween-80 107 % of control | dose: 200.0 mg/kg/injection, schedule: Q01DX001 (ip), vehicle: saline with Tween-80 95 % of control | dose: 400.0 mg/kg/injection, schedule: Q01DX001 (ip), vehicle: saline with Tween-80 91 % of control

O=c1cc(Nc2cccc(-c3ccccc3)c2)[nH]c(=O)[nH]1
inactive: dose: 87.5 mg/kg/injection, schedule: Q01DX001 (ip), vehicle: gum acacia 90 % of control | dose: 175.0 mg/kg/injection, schedule: Q01DX001 (ip), vehicle: gum acacia 102 % of control | dose: 350.0 mg/kg/injection, schedule: Q01DX001 (ip), vehicle: gum acacia 95 % of control

CC(C)(C)c1ccc(-c2nnc(-c3ccc(-c4ccccc4)cc3)o2)cc1
inactive: [6] 95 % of control | [7] 92 % of control | [8] 90 % of control

CC(=O)Oc1c(N)c(C)cc(C)c1F
inactive: dose: 6.0 mg/kg/injection, schedule: Q01DX001 (ip), vehicle: Klucel (hydroxypropylcellulose) (HPC) 92 % of control | dose: 12.0 mg/kg/injection, schedule: Q01DX001 (ip), vehicle: Klucel (hydroxypropylcellulose) (HPC) 92 % of control | dose: 25.0 mg/kg/injection, schedule: Q01DX001 (ip), vehicle: Klucel (hydroxypropylcellulose) (HPC) 110 % of control

NCCc1c[nH]c2ccccc12
inactive: dose: 50.0 mg/kg/injection, schedule: Q01DX001 (ip), vehicle: saline 104 % of control | [9] 102 % of control | [16] 104 % of control | [10] 91 % of control | [17] 93 % of control | [18] 110 % of control

CN(C)N=Nc1ccccc1Cl
inactive: dose: 25.0 mg/kg/injection, schedule: Q01DX009 (ip), vehicle: saline with Tween-80 106 % of control | [12] 120 % of control | dose: 50.0 mg/kg/injection, schedule: Q04DX003 (ip), vehicle: Klucel (hydroxypropylcellulose) (HPC) 97 % of control | [2] 95 % of control | [13] 123 % of control | [6] 102 % of control and 103 % of control | [7] 103 % of control and 111 % of control | [8] 113 % of control

CNC(Cc1ccc(OCc2ccccc2)cc1)C(=O)NC(CC(C)C)C(=O)OC (configuration not stated) (H-[NMeY](Bn)-Leu-OMe; configuration not given here)
inactive: [19] 97 % of control | [14] 100 % of control | [3] 104 % of control | [5] 102 % of control

C=CC1CC[N-]CC1.C=CC1CC[N-]CC1.C=CC1CC[N-]CC1.[Cl][Cr]([Cl])[Cl]
inactive: dose: 25.0 mg/kg/injection, schedule: Q01DX009 (ip), vehicle: saline 97 % of control | [19] 94 % of control

CC(=O)Nc1ccc(/C=N\NC(=O)c2ccco2)cc1
inactive: dose: 100.0 mg/kg/injection, schedule: Q01DX001 (ip), vehicle: other 87 % of control | dose: 200.0 mg/kg/injection, schedule: Q01DX001 (ip), vehicle: other 90 % of control | dose: 400.0 mg/kg/injection, schedule: Q01DX001 (ip), vehicle: other 87 % of control

CC(C)(C)c1ccc(OS(=O)(=O)c2ccccc2[N+](=O)[O-])cc1
inactive: dose: 100.0 mg/kg/injection, schedule: Q01DX001 (ip), vehicle: Klucel (hydroxypropylcellulose) (HPC) 102 % of control | dose: 200.0 mg/kg/injection, schedule: Q01DX001 (ip), vehicle: Klucel (hydroxypropylcellulose) (HPC) 98 % of control | dose: 400.0 mg/kg/injection, schedule: Q01DX001 (ip), vehicle: Klucel (hydroxypropylcellulose) (HPC) 95 % of control

COc1ccc(NC(=O)Oc2ccc(Cl)cc2Cl)c(OC)c1
inactive: [2] 114 % of control | [4] 101 % of control

CCC(=O)Nc1cccc(OC(=O)NC2CCCCC2)c1
inactive: [16] 102 % of control | [17] 98 % of control | [18] 91 % of control

COC(=O)COc1c(C)cc(Cl)cc1Cl
inactive: dose: 100.0 mg/kg/injection, schedule: Q04DX002 (ip), vehicle: saline with Tween-80 96 % of control | dose: 200.0 mg/kg/injection, schedule: Q04DX002 (ip), vehicle: saline with Tween-80 86 % of control | dose: 400.0 mg/kg/injection, schedule: Q04DX002 (ip), vehicle: saline with Tween-80 98 % of control

CC(=O)C(C)(O)C(C)(C)C (configuration not stated)
inactive: [14] 88 % of control | [15] 90 % of control | dose: 400.0 mg/kg/injection, schedule: Q01DX009 (ip), vehicle: saline 98 % of control

Cc1cc(C)c(S(=O)(=O)N=[N+]=[N-])c(C)c1
inactive: [9] 101 % of control | [10] 103 % of control | [11] 97 % of control

O=C(Nc1cc(C(F)(F)F)ccc1Cl)C(=O)Nc1cc(C(F)(F)F)ccc1Cl
inactive: dose: 100.0 mg/kg/injection, schedule: Q01DX009 (ip), vehicle: gum acacia 88 % of control | dose: 200.0 mg/kg/injection, schedule: Q01DX009 (ip), vehicle: gum acacia 93 % of control | dose: 400.0 mg/kg/injection, schedule: Q01DX009 (ip), vehicle: gum acacia 93 % of control
